Source: article PMC12022909, “A Multicomponent Reaction-Based Platform Opens New Avenues in Aryl Hydrocarbon Receptor Modulation” (ACS Central Science, 2025)

What was measured:
[1] = molecular target: T1, aryl hydrocarbon receptor (AhR) (Homo sapiens, UniProt P35869); assay: AhR/XRE-dependent luciferase reporter gene assay in XRE-HepG2 cells; assay type: cell-based; settings: for EC50: XRE-HepG2 cells, 8 h, unit as in the supplements, read-out: AhR/XRE-dependent luciferase activity EC50
T1 construct: AhR-dependent reporter gene activity was determined in human HepG2 cells stably transfected with an XRE; endogenous in cells; host or cells: XRE-HepG2 (human HepG2 hepatoma cells stably carrying an XRE-luciferase plasmid)
T1 sequence (P35869 11-848): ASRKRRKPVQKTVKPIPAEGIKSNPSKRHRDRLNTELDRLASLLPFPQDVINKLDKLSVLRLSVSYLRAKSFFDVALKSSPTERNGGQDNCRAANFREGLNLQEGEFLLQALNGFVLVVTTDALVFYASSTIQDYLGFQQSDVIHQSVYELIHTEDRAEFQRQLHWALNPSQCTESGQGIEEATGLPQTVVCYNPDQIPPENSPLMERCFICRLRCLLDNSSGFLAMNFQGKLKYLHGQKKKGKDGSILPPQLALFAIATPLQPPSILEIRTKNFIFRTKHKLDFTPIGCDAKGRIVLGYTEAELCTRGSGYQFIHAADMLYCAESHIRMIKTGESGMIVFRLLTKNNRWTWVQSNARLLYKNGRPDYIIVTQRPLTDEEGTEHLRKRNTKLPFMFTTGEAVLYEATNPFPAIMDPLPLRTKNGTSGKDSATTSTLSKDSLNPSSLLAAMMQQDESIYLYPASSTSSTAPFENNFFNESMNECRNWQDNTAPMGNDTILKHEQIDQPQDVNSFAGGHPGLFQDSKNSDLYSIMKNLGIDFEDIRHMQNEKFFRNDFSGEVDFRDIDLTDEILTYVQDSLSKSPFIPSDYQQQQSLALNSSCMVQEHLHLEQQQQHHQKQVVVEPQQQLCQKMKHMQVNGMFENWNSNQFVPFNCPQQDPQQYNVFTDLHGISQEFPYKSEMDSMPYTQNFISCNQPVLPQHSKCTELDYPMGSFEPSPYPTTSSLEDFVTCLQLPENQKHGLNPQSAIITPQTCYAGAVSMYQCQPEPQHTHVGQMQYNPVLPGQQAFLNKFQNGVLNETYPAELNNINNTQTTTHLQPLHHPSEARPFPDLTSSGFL
Procedure: (f) AhR/XRE-dependent reporter gene activity results (EC50/μM).
Data are shown as mean ± SEM.
The human XRE -HepG2 reporter cell -line was a kind gift of K. Gradin and L. Poellinger (Karolinska Institute, Stockholm,
antibiotic/antimycotic solution, and 0.8 mg/ml G418. All cells were cultivated at 37 °C in a humidified atmosphere containing 5% CO 2.
AhR-dependent reporter gene activity was determined in human HepG2 cells stably transfected with an XRE -harboring luciferase plasmid (XRE-HepG2 cells). […] Luciferase activity was normalized to protein content.

HEK293T cells = assay: Cell viability (Annexin V-APC, flow cytometry) in HEK293T cells; assay type: cell-based; settings: 24 h
Procedure: (§1) A phosphatidylserine exposure was used to determine cell viability. Cells were washed with PBS, pelleted, and then incubated with annexin binding buffer containing Annexin V-APC (Life Technologies) for 15 min in the dark. Then, samples were analyzed by flow cytometry using FACSCanto II and FACSDiva (BD Biosciences, Franklin Lakes, NJ, USA). Data represents the percentage of non - apoptotic cells (Ann -APC-).
(§2) The cytotoxicity of a selection of the synthesized compounds was assessed after 24 hours of treatment in two human cell lines, Jurkat and HEK293T, coming from either tumoral T-cell lymphocytes or non-tumoral embryonic kidney fibroblasts, respectively. […]
(§3) the pro-apoptotic activity was not significant below 10 µM for most compounds in both cell lines, except for 5i, 5k and 5l in both cell lines, as well as 9a in Jurkat and 5e HEK293T cells (Figure S35A-B).
(§4) Moreover, the cytotoxicity of compounds 4d, 5b, 5h, 8, 10, and 12d at a higher concentration (100 µM) was assessed in both cell lines, Jurkat and HEK293T. The cytotoxicity of compounds 5b, 5h, and 12d could not be properly tested as the compounds were not soluble […]
(§5) effects observed for compound 4d in Jurkat cells and compound 8 in HEK293T cells (Figure S35C).
(§6) Figure S35. A) Jurkat and B) HEK293T cells were treated with 1 and 10 µM doses of the corresponding compound for 24 hours. Indicated doses of fluorizoline were used as a positive control of cell death. C) Jurkat and HEK293T cells were treated with 100 µM of the corresponding compound for 24 hours. Viability was measured by flow cytometry, and it is expressed as the mean ± SEM (n = 3) of the percentage of non -apoptotic cells (Ann-APC-). * p < 0.05, ** p < 0.01 *** p < […]
(§7) (1 picture or pasted object on this page, not shown here)

[2] = Solubility in the growing media during cytotoxicity testing; assay type: physicochemical; settings: concentration of 100 µM
Procedure: as §1, §2, §3, §4, §5, §6, §7

Jurkat cells = assay: Cell viability (Annexin V-APC, flow cytometry) in Jurkat cells; assay type: cell-based; settings: 24 h
Procedure: as §1, §2, §3, §4, §5, §6, §7

EC50 [1] [nM] | increase in the EC50 value relative to 5c ([1]; from reporter gene EC50 values) [fold] | Structure (SMILES) | cytotoxicity / pro-apoptotic activity at 100 µM (HEK293T cells) | solubility in the growing media [2] | cytotoxicity / pro-apoptotic activity at 100 µM (Jurkat cells)
520 | 1.4 | Cc1[nH]c2ccccc2c1-c1c2[nH]c3ccccc3c2cc2[nH]c3ccccc3c12 [5e] |  |  | 
90 |  | CCOc1c2[nH]c3ccccc3c2cc2[nH]c3ccccc3c12 [compound 8, 6-ethoxy-ICZ] | slight cytotoxic effects | slight turbidity | minimal pro-apoptotic activity
